Measurements from publication PMC8815882, “Screening the pandemic response box identified benzimidazole carbamates, Olorofim and ravuconazole as promising drug candidates for the treatment of eumycetoma” (PLoS Neglected Tropical Diseases, 2022).
Values after ≈ are worked out from the molar mass of the structure shown. Read-outs that look alike come from different tables or passages of the source.

Assays:
[1] = tested on: M. mycetomatis genome strain MM55; assay: CLSI M38-A2 based in vitro susceptibility screening (XTT or resazurin), growth at fixed concentration; format: cell-based, Madurella mycetomatis; settings: Madurella mycetomatis
[2] = tested on: M. mycetomatis isolate MM55; assay: M. mycetomatis grain infection model in G. mellonella larvae, survival; format: in vivo, Galleria mellonella; set-up: In vivo efficacy, Larvae survival %: concentration or dose not given beside the values; settings: for Effect on larvae survival Day 4 (words) / Effect on larvae survival Day 10 (words): 20 μM per larvae, vs infected control; for Effect on larvae survival Day 4 (words): day four
[3] = tested on: ten different M. mycetomatis isolates; set-up: method as in PMID 24945848, PMID 22964246, PMID 31904836; settings: asterisk: determined in previous works ref 19-21; cited from earlier work
M. mycetomatis MM55 = assay: IC50 determination, 2-fold dilution series 16 to 0.03125 μM; format: cell-based, Madurella mycetomatis; settings: for IC50 / IC90: Madurella mycetomatis
[4] = tested on: F. senegalensis strain CBS132257; assay: CLSI M38-A2 based in vitro susceptibility screening at 25 μM; format: cell-based, Falciformispora senegalensis; settings: selected if >75% (resazurin) or >80% (XTT) fungal growth inhibited
[5] = tested on: Me. romeroi strain CBS128765; assay: as above; format: cell-based, Medicopsis romeroi; settings: selected if >75% (resazurin) or >80% (XTT) fungal growth inhibited
M. mycetomatis = assay: Drug static or cidal; format: cell-based, Madurella mycetomatis
From the text: Supplement pntd.0010159.s001.xlsx, sheet "Pandemic Box Master sheet" | column: Drug static or cidal

[6] = tested on: ten different M. mycetomatis isolates; assay: MIC / MIC50 determination (XTT) in ten M. mycetomatis isolates; format: cell-based, Madurella mycetomatis; settings: Madurella mycetomatis
[7] = 25 uM, replicate A, read-out: Percentage survival at 25um, 25 um A
[8] = 25 uM, replicate B, read-out: Percentage survival at 25um, 25 uM B
[9] = 25 uM, replicate C, read-out: Percentage survival at 25um, 25 uM C
[10] = MM55, Table 2, M. mycetomatis MM55, read-out: IC50
[11] = MM55, replicate 1, read-out: IC50 1
[12] = MM55, replicate 1, read-out: IC90 1
[13] = MM55, replicate 2, read-out: IC50 2
[14] = MM55, replicate 2, read-out: IC90 2
[15] = MM55, replicate 3, read-out: IC50 3
[16] = MM55, replicate 3, read-out: IC90 3
[17] = MM55, mean of replicates, read-out: IC50 mean
[18] = MM55, replicate 1, read-out: IC50 1 um
[19] = MM55, replicate 1, read-out: IC90 1 um
[20] = MM55, replicate 2, read-out: IC50 2 um
[21] = MM55, replicate 2, read-out: IC90 2 um
[22] = MM55, replicate 3, read-out: IC50 3 um
[23] = MM55, replicate 3, read-out: IC90 3 um
[24] = 25 uM, mean of replicates, read-out: Percentage survival at 25um, 25 uM mean
[25] = mean of replicates, read-out: Percentage survival at 100um, 100 uM mean
[26] = replicate 1, read-out: Percentage survival at 100um, 100 uM A
[27] = replicate 2, read-out: Percentage survival at 100um, 100 uM A
[28] = replicate 3, read-out: Percentage survival at 100um, 100 uM A
[29] = G. mellonella larvae infected with M. mycetomatis

## C[C@@H](c1nc(-c2ccc(C#N)cc2)cs1)[C@](O)(Cn1cncn1)c1ccc(F)cc1F [MMV1634362, Ravuconazole]
[1]; 25 uM, mean, read-out: Percentage survival at 25um, 25 uM mean
  activity at 25 µM: -1.1%
[1]; [7]
  activity at 25 µM: -3.16%
[1]; [8]
  activity at 25 µM: -3.36%
[1]; [9]
  activity at 25 µM: 3.22%
[1]; mean, read-out: Percentage survival at 100um, 100 uM mean
  activity at 100 µM: 4.1%
[1]; replicate (first column), read-out: Percentage survival at 100um, 100 uM A
  activity at 100 µM: -3.18%
[1]; replicate (second column), read-out: Percentage survival at 100um, 100 uM A
  activity at 100 µM: 5.51%
[1]; replicate (third column), read-out: Percentage survival at 100um, 100 uM A
  activity at 100 µM: 9.97%
[2]; 20 μM per larvae at 4, 28, 52 h after infection, day ten
  Larvae survival rate on day ten: 26.7%
[2]
  Effect on larvae survival Day 4 (words): prolonged larvae survival
[2]; day ten
  Effect on larvae survival Day 10 (words): able to prolong larvae survival
[2]; in vivo
  In vivo efficacy, Enhanced survival compared to control?: yes *
  In vivo efficacy, Larvae survival %: 26.7%
[3]
  MIC50: 0.01 µM (≈ 0.00437 µg/mL)
  MIC range: 0.004 to 0.06 µM
M. mycetomatis MM55
  Drug static or cidal: Cidal
M. mycetomatis MM55; [10]
  IC50: 0.01 µM
M. mycetomatis MM55; MM55, mean, read-out: IC50 mean
  IC50: < 0.098 µM
M. mycetomatis MM55; [11]
  IC50: < 0.098 µM
M. mycetomatis MM55; [12]
  IC90: < 0.098 µM
M. mycetomatis MM55; [13]
  IC50: 1.04 µM
M. mycetomatis MM55; [14]
  IC90: 4 µM
M. mycetomatis MM55; [15]
  IC50: < 0.098 µM
M. mycetomatis MM55; [16]
  IC90: 2.75 µM
[4]
  Inhibits growth of Falciformispora senegalensis at 25 μM: neither F. senegalensis nor Me. romeroi growth were inhibited
[5]
  Inhibits growth of Medicopsis romeroi at 25 μM: neither F. senegalensis nor Me. romeroi growth were inhibited

## CN1CCN(Cc2ccc(-c3cnc4[nH]cc(-c5ccc6[nH]ccc6c5)c4c3)cc2)CC1 [MMV1580482]
M. mycetomatis
  Drug static or cidal: Static
[1]; 25 uM, mean of three replicates, read-out: Percentage survival at 25um, 25 uM mean
  activity at 25 µM: 2.87%
[1]; [7]
  activity at 25 µM: 0.0624%
[1]; [8]
  activity at 25 µM: 1.21%
[1]; [9]
  activity at 25 µM: 7.33%
[1]; first replicate column, read-out: Percentage survival at 100um, 100 uM A
  activity at 100 µM: 27.2%
[1]; mean of three replicates, read-out: Percentage survival at 100um, 100 uM mean
  activity at 100 µM: 16.3%
[1]; second replicate column, read-out: Percentage survival at 100um, 100 uM A
  activity at 100 µM: 11.5%
[1]; third replicate column, read-out: Percentage survival at 100um, 100 uM A
  activity at 100 µM: 10.2%
M. mycetomatis MM55; [17]
  IC50: 15.8 µM
M. mycetomatis MM55; [18]
  IC50: 17.4 µM
M. mycetomatis MM55; [19]
  IC90: > 25 µM
M. mycetomatis MM55; [20]
  IC50: 15.3 µM
M. mycetomatis MM55; [21]
  IC90: 22.8 µM
M. mycetomatis MM55; [22]
  IC50: 14.6 µM
M. mycetomatis MM55; [23]
  IC90: 22.2 µM

## O=C(Nc1nnc(-c2ccc(Cl)cc2)o1)c1ccc(F)cc1 [MMV1782140]
M. mycetomatis
  Drug static or cidal: Cidal
[1]; [24]
  activity at 25 µM: 8.95%
[1]; [7]
  activity at 25 µM: 5.38%
[1]; [8]
  activity at 25 µM: 8.31%
[1]; [9]
  activity at 25 µM: 13.2%
[1]; [25]
  activity at 100 µM: 2.78%
[1]; [26]
  activity at 100 µM: -0.102%
[1]; [27]
  activity at 100 µM: 3.75%
[1]; [28]
  activity at 100 µM: 4.7%
M. mycetomatis MM55; [17]
  IC50: 13.4 µM
M. mycetomatis MM55; [11]
  IC50: 15.2 µM
M. mycetomatis MM55; [12]
  IC90: 23.2 µM
M. mycetomatis MM55; [13]
  IC50: 11.5 µM
M. mycetomatis MM55; [14]
  IC90: 21.7 µM
M. mycetomatis MM55; [15]
  IC50: 13.5 µM
M. mycetomatis MM55; [16]
  IC90: > 25 µM

## COC(=O)Nc1nc2ccccc2[nH]1 [MMV344625, Carbendazim]
[6]; Table 3 and Fig 5, benzimidazole carbamates, M. mycetomatis, read-out: MIC50
  MIC50: 0.5 µM (≈ 0.0956 µg/mL)
[6]; median MIC over ten M. mycetomatis isolates, no asterisk, read-out: MIC50
  MIC50: 0.5 µM (≈ 0.0956 µg/mL)
[6]; over the tested M. mycetomatis isolates, read-out: MIC50 mean
  MIC50: 0.5 µM (≈ 0.0956 µg/mL)
[6]; isolate CBS247.48, read-out: MIC CBS247.48
  MIC: 0.5 µM (≈ 0.0956 µg/mL)
[6]; isolate MM14, read-out: MIC MM14
  MIC: < 0.0312 µM
[6]; isolate MM45, read-out: MIC MM45
  MIC: 1 µM (≈ 0.191 µg/mL)
[6]; isolate MM55, read-out: MIC MM55
  MIC: 0.5 µM (≈ 0.0956 µg/mL)
[6]; isolate P1, read-out: MIC P1
  MIC: 0.5 µM (≈ 0.0956 µg/mL)
[6]; isolate ParijsAl1, read-out: MIC ParijsAl1
  MIC: 1 µM (≈ 0.191 µg/mL)
[6]; isolate Peru72012, read-out: MIC Peru72012
  MIC: 1 µM (≈ 0.191 µg/mL)
[6]; isolate So1, read-out: MIC So1
  MIC: 0.5 µM (≈ 0.0956 µg/mL)
[6]; isolate i1, read-out: MIC i1
  MIC: 0.5 µM (≈ 0.0956 µg/mL)
[6]; isolate i11, read-out: MIC i11
  MIC: 2 µM (≈ 0.382 µg/mL)
[1]; 25 uM, replicate A, M. mycetomatis MM55, read-out: Percentage survival at 25um, 25 um A
  activity at 25 µM: 1.64%
[1]; mean of three, M. mycetomatis MM55, read-out: Percentage survival at 100um, 100 uM mean
  activity at 100 µM: 8.48%
[1]; replicate 1, M. mycetomatis MM55, read-out: Percentage survival at 100um, 100 uM A (first replicate column)
  activity at 100 µM: 0.376%
[1]; replicate 2, M. mycetomatis MM55, read-out: Percentage survival at 100um, 100 uM A (second replicate column)
  activity at 100 µM: 3.66%
[1]; replicate 3, M. mycetomatis MM55, read-out: Percentage survival at 100um, 100 uM A (third replicate column)
  activity at 100 µM: 21.4%
[1]; read-out: Percentage survival at 25um, 25 uM B
  activity at 25 µM: 6.23%
[1]; read-out: Percentage survival at 25um, 25 uM C
  activity at 25 µM: 2.7%
[1]; read-out: Percentage survival at 25um, 25 uM mean
  activity at 25 µM: 3.52%
[2]
  Effect on larvae survival Day 4 (words): Increase survival
[2]; listed as carbendazim
  Effect on larvae survival Day 4 (words): significantly increase larvae survival
[2]; day ten
  Effect on larvae survival Day 10 (words): No
[2]; [29]
  In vivo efficacy, Enhanced survival compared to control?: no
  In vivo efficacy, Larvae survival %: 6.7%
M. mycetomatis MM55; M. mycetomatis
  Drug static or cidal: Static
M. mycetomatis MM55; [10]
  IC50: 1.32 µM
M. mycetomatis MM55; [17]
  IC50: 1.32 µM
M. mycetomatis MM55; [18]
  IC50: 2.28 µM
M. mycetomatis MM55; [19]
  IC90: 4.72 µM
M. mycetomatis MM55; [20]
  IC50: 0.7 µM
M. mycetomatis MM55; [21]
  IC90: 1.5 µM
M. mycetomatis MM55; [22]
  IC50: 0.97 µM
M. mycetomatis MM55; [23]
  IC90: > 25 µM
[5]
  Inhibits growth of Medicopsis romeroi at 25 μM: inhibit the growth

## Cc1ccc(S(=O)(=O)Nc2cccc3cccnc23)cc1 [MMV233495]
M. mycetomatis
  Drug static or cidal: Static
[1]; [24]
  activity at 25 µM: 17.1%
[1]; [7]
  activity at 25 µM: 5.12%
[1]; [8]
  activity at 25 µM: -0.547%
[1]; [9]
  activity at 25 µM: 46.8%
[1]; [25]
  activity at 100 µM: 31.3%
[1]; [26]
  activity at 100 µM: -0.389%
[1]; [27]
  activity at 100 µM: 38.9%
[1]; [28]
  activity at 100 µM: 55.5%
M. mycetomatis MM55; [17]
  IC50: > 25 µM
M. mycetomatis MM55; MM55, mean of replicates, read-out: IC90 mean
  IC90: > 25 µM
M. mycetomatis MM55; [11]
  IC50: 18.5 µM
M. mycetomatis MM55; [12]
  IC90: > 25 µM
M. mycetomatis MM55; [13]
  IC50: > 25 µM
M. mycetomatis MM55; [14]
  IC90: > 25 µM
M. mycetomatis MM55; [15]
  IC50: > 25 µM
M. mycetomatis MM55; [16]
  IC90: > 25 µM
